Data reported in patent US9278958B2, “Anti-cancer compounds” (KATHOLIEKE UNIVERSITEIT LEUVEN, priority 2012, dated 2016).
Read-outs that look alike come from different tables or passages of the source.

Columns and labels:
[1] = system: BPH-1 (UZ); assay: Cytostatic assay, BPH-1 (UZ); type: cell-based; settings: Homo sapiens, Table 4
Description: (§1) To each well of a 96-well microtiter plate were added 5-7.5×10^4 cells and a given amount of the test compound. The cells were allowed to proliferate for 48 h to 96 h (depending on the nature of the cell line) at 37° C. in a humidified CO2-controlled atmosphere. At the end of the incubation period, the cells were counted in a Coulter Counter (Coulter Electronics Ltd, Harpenden Herts, United Kingdom).

[2] = system: PLC/PRF/5 hepatoma cells; assay: Cytostatic assay, PLC/PRF/5; type: cell-based; settings: Homo sapiens, Table 4
Description: as §1

[3] = system: FM3A mammary carcinoma cells; assay: Cytostatic assay, FM3A; type: cell-based, murine; settings: Mus musculus, Table 3
Description: as §1

[4] = system: MT-2 cells; assay: Cytostatic assay, MT-2; type: cell-based; settings: Homo sapiens, MT2; Table 2
Description: as §1

[5] = system: 293T embryonic kidney cells; assay: Cytostatic assay, 293T; type: cell-based; settings: Homo sapiens, HEK-293T; Table 3
Description: as §1

[6] = system: Caki-2 kidney carcinoma cells; assay: Cytostatic assay, Caki-2; type: cell-based; settings: Homo sapiens, Table 3
Description: as §1

[7] = system: 22Rv1 (UZ) prostate cancer cells; assay: Cytostatic assay, 22Rv1 (UZ); type: cell-based; settings: Homo sapiens, Table 4
Description: as §1

[8] = system: CEM cells; assay: Cytostatic assay, CEM; type: cell-based; settings: Homo sapiens, CCRF-CEM
Outline: (§2)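 Test compound was added to wells holding 5-7.5×10^4 cells. After line-specific growth periods of 48 h to 96 h at 37° C in a moist atmosphere with regulated CO2, the number of cells was recorded by Coulter counting.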

[9] = system: MT-4 cells; assay: Cytostatic assay, MT-4; type: cell-based; settings: Homo sapiens, MT4; Table 2
Description: as §1

[10] = system: Raji, human B-lymphoma cells; assay: Cytostatic assay, Raji; type: cell-based; settings: Table 2
Description: as §1

[11] = system: MCF-7 mammary carcinoma cells; assay: Cytostatic assay, MCF-7; type: cell-based; settings: Homo sapiens, MCF7; Table 3
Description: as §1

[12] = system: C8166 cells; assay: Cytostatic assay, C8166; type: cell-based; settings: Homo sapiens, Table 2
Description: as §1

[13] = system: HeLa cervix carcinoma cells; assay: Cytostatic assay, HeLa; type: cell-based, human; settings: Homo sapiens; Table 3; read-out: Cytostatic activity (μM) Hela
Outline: as §2

[14] = system: HEL embryonic lung fibroblast cells; assay: Cytostatic assay, HEL; type: cell-based; settings: Homo sapiens, Table 3
Description: as §1

[15] = system: LNCaP (UZ) prostate cancer cells; assay: Cytostatic assay, LNCaP (UZ); type: cell-based; settings: Homo sapiens, Table 4
Description: as §1

[16] = system: Molt4/C8 cells; assay: Cytostatic assay, Molt4/C8; type: cell-based; settings: Table 2
Description: as §1

[17] = system: HL60, human leukemia cells; assay: Cytostatic assay, HL-60; type: cell-based; settings: Table 2
Description: as §1

[18] = system: U937, human monocytic cells; assay: Cytostatic assay, U937; type: cell-based; settings: U-937, Table 2
Description: as §1

[19] = system: Huh-7 hepatoma cells; assay: Cytostatic assay, Huh-7; type: cell-based; settings: Homo sapiens, Table 4
Description: as §1

[20] = system: PC3 (rega) prostate cancer cells; assay: Cytostatic assay, PC3 (rega); type: cell-based; settings: Table 4
Description: as §1

[21] = system: L1210 cells; assay: Cytostatic assay, L1210; type: cell-based; settings: Mus musculus, Table 2
Description: as §1

[22] = system: Sup T1 cells; assay: Cytostatic assay, Sup T1; type: cell-based; settings: Homo sapiens, Table 2, read-out: Cytostatic activity (μM) Sup T 1
Description: as §1

[23] = system: BAEC aortic endothelial cells; assay: Cytostatic assay, BAEC; type: cell-based, bovine; settings: Bos taurus, Table 3
Description: as §1

[24] = system: PNT1A (UZ) prostate cells; assay: Cytostatic assay, PNT1A (UZ); type: cell-based; settings: Homo sapiens, Table 4
Description: as §1

[25] = system: PC-3 (UZ) prostate cancer cells; assay: Cytostatic assay, PC-3 (UZ); type: cell-based; settings: Table 4
Description: as §1

[26] = system: Caki-1 kidney carcinoma cells; assay: Cytostatic assay, Caki-1; type: cell-based; settings: Homo sapiens, Table 3
Description: as §1

[27] = system: HepG2C3A hepatoma cells; assay: Cytostatic assay, HepG2C3A; type: cell-based; settings: Homo sapiens, HepG2/C3A; Table 4
Description: as §1

[28] = system: U87 glioma cells; assay: Cytostatic assay, U87; type: cell-based; settings: Homo sapiens, U-87 MG; Table 3
Description: as §1

[29] = system: HUT-78 cells; assay: Cytostatic assay, HUT-78; type: cell-based; settings: Homo sapiens, HuT78; Table 2
Description: as §1

[30] = system: OST TK- osteosarcoma cells; assay: Cytostatic assay, OST TK-; type: cell-based; settings: Homo sapiens; Table 3
Description: as §1

[31] = system: HT29 colorectal carcinoma cells; assay: Cytostatic assay, HT29; type: cell-based; settings: Homo sapiens, HT-29; Table 3
Description: as §1

[32] = system: DU145 (UZ) prostate cancer cells; assay: Cytostatic assay, DU145 (UZ); type: cell-based; settings: Homo sapiens, DU-145; Table 4
Description: as §1

[33] = system: THP-1, human monocytic cells; assay: Cytostatic assay, THP-1; type: cell-based; settings: Table 2
Description: as §1

[34] = Table 1a, read-out: IC50 μM (CEM)
[35] = Table 2, read-out: Cytostatic activity (μM) CEM

SMILES | IC50 [1] [µM] | IC50 [2] [µM] | IC50 [3] [µM] | IC50 [4] [µM] | IC50 [5] [µM] | IC50 [6] [µM] | IC50 [7] [µM] | IC50 [8, 34] [µM] | IC50 [8, 35] [µM] | IC50 [9] [µM] | IC50 [10] [µM] | IC50 [11] [µM] | IC50 [12] [µM] | IC50 [13] [µM] | IC50 [14] [µM] | IC50 [15] [µM] | IC50 [16] [µM] | IC50 [17] [µM] | IC50 [18] [µM] | IC50 [19] [µM] | also measured
CCOC(=O)c1cc(CCc2cc(OC)ccc2OC)sc1N [TR587, 2-Amino-5-[2-(2,5-dimethoxy-phenyl)-ethyl]-thiophene-3-carboxylic acid ethyl ester] | 0.39 ± 0.007 | 0.26 ± 0.15 | 2 ± 0.28 | 0.7 ± 0.3 | 1 ± 0.11 | 3.2 ± 2.4 | 0.19 ± 0.11 | 0.76 | 0.76 ± 0.48 | 1.7 ± 0.59 | 1.8 ± 0.42 | 0.83 ± 0.35 | 0.82 ± 0.16 | 0.33 ± 0.028 | 0.27 ± 0.22 | 0.35 ± 0.064 | 1.1 ± 1 | 0.46 ± 0.35 | 0.92 ± 0.08 | 0.71 ± 0.35 | IC50 [20]: 0.33 ± 0.099 µM; IC50 [21]: 1.2 ± 0.4 µM; IC50 [22]: 0.54 ± 0.007 µM; IC50 [23]: 0.93 ± 0.67 µM; IC50 [24]: 0.41 ± 0.028 µM; IC50 [25]: 0.52 ± 0.007 µM; IC50 [26]: 1.4 ± 0.5 µM; IC50 [27]: 1.1 ± 0.49 µM; IC50 [28]: 1.6 ± 1.1 µM; IC50 [29]: 0.43 ± 0.24 µM; IC50 [30]: 0.51 ± 0.42 µM; IC50 [31]: 1.7 ± 0.14 µM; IC50 [32]: 1.4 ± 0.21 µM; IC50 [33]: 0.71 ± 0.18 µM
N#Cc1cc(CCc2ccccc2)sc1N [TR588, 2-Amino-5-phenethyl-thiophene-3-carbonitrile] | ≥ 100 | 41 ± 3.5 | 67 ± 23 | 6.65 ± 1.9 | 34 ± 14 | 78 ± 69 | 61 ± 34 | 47 | 47 ± 25 | 75 ± 35 | 39 ± 21 | 26 ± 2.1 | ≥ 200 | 27 ± 28 | 30 ± 6.4 | 5.3 ± 4.3 | 8.5 ± 3.4 | 3.9 ± 0.5 | 42 ± 2.1 | 21 ± 7.1 | IC50 [20]: 3.1 ± 1.2 µM; IC50 [21]: 40 ± 6 µM; IC50 [22]: > 200 µM; IC50 [23]: 45 ± 4.9 µM; IC50 [24]: 66 ± 31 µM; IC50 [25]: 11 ± 4.2 µM; IC50 [26]: 1.3 ± 0.4 µM; IC50 [27]: 64 ± 52 µM; IC50 [28]: 46 ± 7.8 µM; IC50 [29]: 18 ± 7.1 µM; IC50 [30]: 27 ± 18 µM; IC50 [31]: 66 ± 6.4 µM; IC50 [32]: 24 ± 4.9 µM; IC50 [33]: 8.4 ± 0.28 µM
COC(=O)c1cc(CCc2ccccn2)sc1N [TR596, 2-Amino-5-(2-pyridin-2-yl-ethyl)-thiophene-3-carboxylic acid methyl ester] | > 100 | > 100 | 210 ± 17 | 48 ± 7.1 | > 100 | > 200 | 77 ± 27 | 63 | 63 ± 7.8 | > 100 | 76 ± 35 | 72 ± 45 | ≥ 200 | 45 ± 3 | 43 ± 9.2 | 4.3 ± 3.2 | 21 ± 4 | 73 ± 30 | > 200 | 46 ± 34 | IC50 [20]: 8.5 ± 7.8 µM; IC50 [21]: 101 ± 28 µM; IC50 [22]: 99 µM; IC50 [23]: > 100 µM; IC50 [24]: > 100 µM; IC50 [25]: 8.6 ± 0.21 µM; IC50 [26]: 17 ± 13 µM; IC50 [27]: 69 ± 45 µM; IC50 [28]: > 100 µM; IC50 [29]: 142 ± 83 µM; IC50 [30]: 135 ± 92 µM; IC50 [31]: > 100 µM; IC50 [32]: > 100 µM; IC50 [33]: 116 ± 49 µM
COC(=O)c1cc(CCc2cccnc2)sc1N [TR597, 2-Amino-5-(2-pyridin-3-yl-ethyl)-thiophene-3-carboxylic acid methyl ester] | > 100 | > 100 | 164 ± 30 | 38 ± 15 | > 100 | > 200 | ≥ 100 | 50 | 50 ± 6.4 | > 100 | > 100 | 71 ± 30 | ≥ 200 | 170 ± 25 | ≥ 100 | 7.4 ± 0.75 | 47 ± 15 | 63 ± 15 | > 200 | 78 ± 32 | IC50 [20]: 6.3 ± 4.7 µM; IC50 [21]: 235 ± 49 µM; IC50 [22]: 147 ± 66 µM; IC50 [23]: > 100 µM; IC50 [24]: > 100 µM; IC50 [25]: 12 ± 5.5 µM; IC50 [26]: 7.7 ± 0.5 µM; IC50 [27]: > 100 µM; IC50 [28]: > 100 µM; IC50 [29]: 59 ± 33 µM; IC50 [30]: ≥ 111 µM; IC50 [31]: > 100 µM; IC50 [32]: 60 ± 21 µM; IC50 [33]: > 200 µM
